Experimental data as given in PMC9481533, “Structure-based discovery of small molecules that disaggregate Alzheimer’s disease tissue derived tau fibrils in vitro” (Nature Communications, 2022).
“And” between values parts separate entries of the source, which are not always exact repeats. Equal values may be shown once.

Molecular target: crude AD brain extracts (tau seeds) in HEK293T tau biosensor cells (Homo sapiens, UniProt P10636)
Assay: Tau biosensor cell seeding assay, screen with crude AD brain extracts
Type: cell-based
Settings: 10 μM inhibitor on cells, seeds pre-incubated 16–18 h at 4 °C, individual replicates (n=3), DMSO control 10734.9/12808.5/11145.3
Description: From the in silico screen, compounds were ranked and 46 were selected for further experimental validation based on the total binding energy of the ligand/fibril complex. The experimental assessment consisted of direct measures of fibril disassembly (Fig. 2d, e and Supplementary Table 3) and assessment of the seeding capability of the products of disassembled AD tau fibrils in a biosensor cell assay. Disaggregating molecules that produce active seeds are undesirable for therapy and are excluded from further study. HEK293T cells expressing CFP- or YFP-fused tau are transduced with exogenous AD tau fibrils. Externally applied AD-tau fibrils then induce the aggregation of the endogenous fluorescent tau, resulting in the formation of FRET-positive intracellular aggregates, visible as bright puncta by fluorescence microscopy (Fig. 2f). Automated image analysis of visible puncta provides an objective quantification of seeded aggregation. […] Although biosensors may be limited in reporting structural characteristics of fibril progeny, they offer exquisitely sensitive measures of tau seeding activity—the ability for fibrils to recruit monomeric protein into fibrillar form, which is thought to be the mechanism for tau spreading in AD.
Human autopsy samples were obtained by the Mayo Clinic Brain Bank and UCLA Pathology Department according to HHS regulations from patients consenting to autopsy. Samples were provided to the researchers of this study as anonymized tissues. For purification of paired helical filaments (PHFs) and straight filaments (SFs) from AD brain tissue, extractions were performed according to the previously published protocol without any modifications. […] For biosensor seeding assays with crude AD brain extracts, fresh-frozen tissue from neuropathologically confirmed AD cases was thawed and cut into a 0.2–0.3 g sections. Tissue was manually homogenized in a 15 ml disposable tube in 1 ml of 50 mM Tris, pH 7.4 with 150 mM NaCl, and then aliquoted to PCR tubes and sonicated in a cuphorn bath for 120 min under 30% power at 4 °C in a recirculating ice water bath, according to reference.
HEK293T cell lines stably expressing tau-K18 P301S-eYFP were obtained from Marc Diamond[25] and used without further characterization or authentication. […] Inhibitors were dissolved in DMSO. […] After twenty minutes, 10 µl of fibrils were added to 90 µl of tau biosensor cells. The number of seeded aggregates was determined by imaging the entire well of a 96-well plate in triplicate using a Celigo Image Cytometer (Nexcelom) in the YFP channel. The number of aggregates in a given image was determined using an ImageJ 2.3.0[50] script, which subtracts the background fluorescence from unseeded cells, and then counts the number of aggregates as peaks with fluorescence above the background using the built-in Particle Analyzer. The number of aggregates was normalized to the confluence of each well, and dose-response plots were generated by calculating the average and standard deviations from triplicate measurements.

Sequence of crude AD brain extracts (tau seeds) in HEK293T tau biosensor cells (P10636 623-695 limits assumed): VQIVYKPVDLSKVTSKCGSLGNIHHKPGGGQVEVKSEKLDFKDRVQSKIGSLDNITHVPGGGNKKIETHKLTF

Compound: Oc1c(Cl)cc(Cl)c2cccnc12 [5,7-dichloro-8-quinolinol AKA Chloroxine, 5,7-dichloro-8-quinolinol]
- Number of seeded aggregates in tau biosensor cells (normalized to confluence), Fig. 2e: 8929.14 and 10028.6 and 22099.9

Compound: Cn1c(=O)n(C)c2cc3c(cc21)nc1c2cccc4cccc(c(=O)n31)c42 [CNS-1, 10,12-dimethyl-10,12-dihydro-7H,11H-benzo[de]imidazo[4',5':5,6]benzimidazo[2,1-a]isoquinoline-7,11-dione]
- Number of seeded aggregates in tau biosensor cells (normalized to confluence), Fig. 2e (listed as 7850915): 11080.3 and 15413.1 and 17191

Compound: CC1=C(C(=O)Nc2ccccn2)C(c2ccc(F)cc2)C2=C(CCCC2=O)N1 (centres unmarked) [CNS-4, 4-(4-fluorophenyl)-2-methyl-5-oxo-N-2-pyridinyl-1,4,5,6,7,8-hexahydro-3-quinolinecarboxamide]
- Number of seeded aggregates in tau biosensor cells (normalized to confluence), Fig. 2e (listed as 6317572): 8103.61 and 7551.45 and 17671.3

Compound: COc1cccc(C2C(C(=O)Nc3ccccn3)=C(C)NC3=C2C(=O)CCC3)c1 (centres unmarked) [CNS-5, 4-(3-methoxyphenyl)-2-methyl-5-oxo-N-2-pyridinyl-1,4,5,6,7,8-hexahydro-3-quinolinecarboxamide]
- Number of seeded aggregates in tau biosensor cells (normalized to confluence), Fig. 2e (listed as 6327117): 5790.63 and 5091.84 and 10386.8

Compound: CC1=C(C(=O)Nc2cccc(C)n2)C(c2ccccc2C)C2=C(CCCC2=O)N1 (centres unmarked) [CNS-6, 2-methyl-4-(2-methylphenyl)-N-(6-methyl-2-pyridinyl)-5-oxo-1,4,5,6,7,8-hexahydro-3-quinolinecarboxamide]
- Number of seeded aggregates in tau biosensor cells (normalized to confluence), Fig. 2e (listed as 6343767): 6727.54 and 6497.71 and 11400

Compound: Cc1ccc(S(=O)(=O)N(C(F)F)C(C)(C)C)cc1 [CNS-9, N-(tert-butyl)-N-(difluoromethyl)-4-methylbenzenesulfonamide]
- Number of seeded aggregates in tau biosensor cells (normalized to confluence), Fig. 2e (listed as 6933498): 6268.06 and 9513.63 and 13394.2

Compound: O=C(c1cc2cc(Br)ccc2oc1=O)N1CCc2ccccc2C1 [CNS-10, 6-bromo-3-(3,4-dihydro-2(1H)-isoquinolinylcarbonyl)-2H-chromen-2-one]
- Number of seeded aggregates in tau biosensor cells (normalized to confluence), Fig. 2e (listed as 6991358): 4869.84 and 6105.12 and 9256.09

Compound: CC(=O)Nc1cc(-c2nn(C)c(=O)c3ccccc23)ccc1N1CCCCC1 [CNS-19, N-[5-(3-methyl-4-oxo-3,4-dihydro-1-phthalazinyl)-2-(1-piperidinyl)phenyl]acetamide]
- Number of seeded aggregates in tau biosensor cells (normalized to confluence), Fig. 2e (listed as 7520752): 9057.73 and 5534.89 and 16287.3

Compound: N#Cc1c2c(n3cc4ccccc4cc13)C(=O)c1ccccc1C2=O [CNS-20, 5,14-dioxo-5,14-dihydrobenzo[5,6]indolo[1,2-b]isoquinoline-13-carbonitrile]
- Number of seeded aggregates in tau biosensor cells (normalized to confluence), Fig. 2e (listed as 7663820): 40070.2 and 48758.2 and 61897.7

Compound: Cc1ccc(N2C(=O)CC(n3cnc4ccccc43)C2=O)c(C)c1 (centres unmarked) [CNS-22, 3-(1H-benzimidazol-1-yl)-1-(2,4-dimethylphenyl)-2,5-pyrrolidinedione]
- Number of seeded aggregates in tau biosensor cells (normalized to confluence), Fig. 2e (listed as 7729218): 7077.98 and 8551.58 and 10715.2

Compound: Cc1cccc(-c2noc(-c3ccccc3C(=O)NCc3cccnc3)n2)c1 [CNS-24, 2-[3-(3-methylphenyl)-1,2,4-oxadiazol-5-yl]-N-(3-pyridinylmethyl)benzamide]
- Number of seeded aggregates in tau biosensor cells (normalized to confluence), Fig. 2e (listed as 9002758): 4798.71 and 2194.24 and 9734.93

Compound: COc1ccccc1NC(=O)c1cc2c(ccc3ccccc32)oc1=O [CNS-25, N-(2-methoxyphenyl)-3-oxo-3H-benzo[f]chromene-2-carboxamide]
- Number of seeded aggregates in tau biosensor cells (normalized to confluence), Fig. 2e (listed as 5876327): 13235.2 and 9679.79 and 19134.9

Compound: CO[C@H]1C[C@@H]2CC[C@@H](C)[C@@](O)(O2)C(=O)C(=O)N2CCCC[C@H]2C(=O)O[C@H]([C@H](C)C[C@@H]2CC[C@@H](OCCO)[C@H](OC)C2)CC(=O)[C@H](C)/C=C(\C)[C@@H](O)[C@@H](OC)C(=O)[C@H](C)C[C@H](C)/C=C/C=C/C=C/1C [FDA-A-7, Everolimus]
- Number of seeded aggregates in tau biosensor cells (normalized to confluence), Fig. 2e: 3758.68 and 4378.2 and 11639.6

Compound: C[C@]12C=CC(=O)N[C@@H]1CC[C@@H]1[C@@H]2CC[C@]2(C)[C@@H](C(=O)Nc3cc(C(F)(F)F)ccc3C(F)(F)F)CC[C@@H]12 [FDA-A-9, Dutasteride]
- Number of seeded aggregates in tau biosensor cells (normalized to confluence), Fig. 2e: 6197.61 and 4567.33 and 9824.67

Compound: COc1cc([C@@H]2c3cc4c(cc3[C@@H](O[C@@H]3O[C@@H]5CO[C@@H](c6cccs6)O[C@H]5[C@H](O)[C@H]3O)[C@H]3COC(=O)[C@H]23)OCO4)cc(OC)c1O [FDA-A-11, Teniposide]
- Number of seeded aggregates in tau biosensor cells (normalized to confluence), Fig. 2e: 28315 and 23778 and 42223.8

Compound: C/C=C(/C)C(=O)O[C@H]1C(C)=C[C@]23C(=O)[C@@H](C=C(CO)[C@@H](O)[C@]12O)[C@H]1[C@@H](C[C@H]3C)C1(C)C [FDA-A-13, Ingenol mebutate]
- Number of seeded aggregates in tau biosensor cells (normalized to confluence), Fig. 2e (listed as ingenol-3-angelate): 10027.6 and 8367.28 and 13011.7

Compound: CC1=NN(c2ccc(C)c(C)c2)C(=O)/C1=N\Nc1cccc(-c2cccc(C(=O)O)c2)c1O [FDA-A-15, Eltrombopag]
- Number of seeded aggregates in tau biosensor cells (normalized to confluence), Fig. 2e: 3758.35 and 8279.6 and 8614.09

Compound: Cc1nc2c([nH]1)-c1ccccc1N(C(=O)c1ccc(NC(=O)c3ccccc3-c3ccccc3)cc1)CC2 [FDA-A-16, Conivaptan]
- Number of seeded aggregates in tau biosensor cells (normalized to confluence), Fig. 2e: 15272 and 13297.5 and 27692

Compound: Cc1ccc(-n2nccn2)c(C(=O)N2CCN(c3nc4cc(Cl)ccc4o3)CC[C@H]2C)c1 [FDA-A-20, Suvorexant]
- Number of seeded aggregates in tau biosensor cells (normalized to confluence), Fig. 2e: 10609.4 and 12014.6 and 14701.5

Compound: CN1C[C@H](C(=O)N[C@]2(C)O[C@@]3(O)[C@@H]4CCCN4C(=O)[C@H](Cc4ccccc4)N3C2=O)C[C@@H]2c3cccc4[nH]cc(c34)C[C@H]21 [FDA-A-23, Dihydroergotamine]
- Number of seeded aggregates in tau biosensor cells (normalized to confluence), Fig. 2e (listed as dihydroergotamine mesylate): 6873.71 and 6659.65 and 11949.1

Compound: COc1ccc2c(c1)C(=O)N(CCc1ccc(S(=O)(=O)NC(=O)NC3CCCCC3)cc1)C(=O)C2(C)C [FDA-R-2, Gliquidone]
- Number of seeded aggregates in tau biosensor cells (normalized to confluence), Fig. 2e: 7523.16 and 6557.51 and 13245

Compound: CNS(=O)(=O)CCc1ccc2[nH]cc(C3CCN(C)CC3)c2c1 [FDA-R-4, Naratriptan]
- Number of seeded aggregates in tau biosensor cells (normalized to confluence), Fig. 2e: 8578.9 and 6012.3 and 15427

Compound: CNC(=C[N+](=O)[O-])NCCSCc1csc(CN(C)C)n1 [FDA-R-7, Nizatidine]
- Number of seeded aggregates in tau biosensor cells (normalized to confluence), Fig. 2e: 6548.12 and 9220.9 and 15017.2
